The values below come from patent US20070197632A1, “Aminocyclohexyl ether compounds and uses thereof” (Cardiome Pharma Corp, priority 2003, published 2007).

Structures are written as SMILES. Counter-ions that a name gives are not always drawn. Like-named read-outs stand apart in the source and are kept apart here.

Data set [1] concerns conscious rats. The settings on record: rat, in vivo, iv.
For data set [2], the system named is conscious rats. The data set can be described thus: Determination of CNS toxicity: convulsions in conscious rats under intravenous infusion. The note with it: Table 5, comparative example compounds; for cum conv dose: total amount of drug infused when convulsions are first observed; for convulsion dose: minimum iv infusion rate at which partial or complete convulsions are observed.

For data set [3], the system named is sustained AF maintained during continuous vagal nerve stimulation. As to the kind of experiment: Canine vagal-AF model. Format: in vivo, dog. The settings on record: anesthetized dogs, IV. How it is done:
St.-Georges et al., 1997). Dogs are ventilated mechanically with room air supplemented with oxygen via an endotracheal tube at 20 to 25 breaths/minute with a tidal volume obtained from a nomogram. […] Catheters are inserted into the femoral artery for blood pressure recording and blood gas measurement, and into both femoral veins for drug administration and venous sampling. […] Body temperature is maintained at 37-40° C. with a heating blanket. The heart is exposed via a medial thoracotomy and a pericardial cradle is created. […] Drug effects to terminate sustained AF maintained during continuous vagal nerve stimulation are assessed. […] The vagal stimulation voltage is adjusted under control conditions, and then readjusted after each treatment to maintain the same bradycardic effect. […] Diastolic threshold and ERP are determined in duplicate and averaged to give a single value. […] The interval between the stimulus artefact and the peak of the local electrogram is measured as an index of conduction velocity. […] The stimulus voltage-heart rate relationship for vagal nerve stimulation is determined under control conditions in most experiments. […] After the termination of AF, the diastolic threshold and ERP of the atrium and ventricle are determined. […] Group data are expressed as the mean±SEM. […]

Regarding `COc1ccc(CCO[C@H]2CCCC[C@@H]2N2CC[C@H](O)C2)cc1OC.Cl` [Compound 7, (1S,2S)-2-[(3S)-Hydroxypyrrolidinyl]-1-(3,4-dimethoxyphenethoxy)-cyclohexane monohydrochloride], in the data set on conscious rats [1], the convulsion dose is 64 µmol/kg/min.

With `COc1ccc(CCO[C@H]2CCCC[C@@H]2N2CC[C@@H](O)C2)cc1OC.Cl` [Compound 2, (1S,2S)-2-[(3R)-Hydroxypyrrolidinyl]-1-(3,4-dimethoxyphenethoxy)-cyclohexane monohydrochloride], in the data set on conscious rats [1], the convulsion dose came out at 64 µmol/kg/min.

In the case of `c1ccc2cc(CCO[C@H]3CCCCC3N3CCOCC3)ccc2c1` (stereo partly drawn) [Comparative Example Compound 30, (1R,2R)/(1S,2S)-[2-(4-morpholinyl)-1-(2-naphihenethoxy)]-cyclohexane monohydrochloride], in the data set with conscious rats [2], the cum conv dose worked out at 85 µmol/kg.

For the molecule `O=C(NCC1CCCCN1)c1cc(OCC(F)(F)F)ccc1OCC(F)(F)F` (centres unmarked) [Flecainide], in data set [3], the “Median dose required for termination of AF” value is 2.5 µmol/kg. Further, the “Mean dose required for termination of AF” value in data set [3] (mean±SEM) came out at 4 ± 2 µmol/kg.

In turn, `COc1ccc(CCO[C@H]2CCCCC2N2CC[C@H](O)C2)cc1OC.Cl` (stereo partly drawn) [Compound 5, (1R,2R)/(1S,2S)-2-[(3s)-Hydroxypyrrolidinyl]-1-(3,4-dimethoxyphenethoxy)-cyclohexane monohydrochloride] displayed a convulsion dose with conscious rats [1] of 64 µmol/kg/min.

In the data set on conscious rats [2], `CC(=O)OC1CCN([C@@H]2CCCCC2OCCc2cccc3ccccc23)C1.Cl` (stereo partly drawn) [Comparative Example Compound 43, (1R,2R)/(1S,2S)-2-(3-acetoxypyrrolidinyl)-1-(1-naphthenethoxy)cyclo-hexane monohydrochloride] registered a convulsion dose of 8 µmol/kg/min and a cum conv dose of 65 µmol/kg.

Regarding `Cl.OC1CCN(C2CCCC[C@@H]2OCCc2c(Cl)cccc2Cl)C1` (stereo partly drawn) [Comparative Example Compound 46, (1R,2R)/(1S,2S)-2-(3-hydroxypyrrolidinyl)-1-(2,6-dichlorophenethoxy)cyclo-hexane monohydrochloride], in the data set on conscious rats [2], the convulsion dose was 8 µmol/kg/min.

In the case of `Cl.OC1CCN(C2CCCC[C@@H]2OCCn2ccc3ccccc32)C1` (some centres unmarked) [Comparative Example Compound 28], the convulsion dose in the data set on conscious rats [2] was determined as 16 µmol/kg/min.

Consider `COc1ccc(CCO[C@H]2CCCCC2N2CC[C@@H](O)C2)cc1OC.Cl` (stereo partly drawn) [Compound 4, (1R,2R)/(1S,2S)-2-[(3R)-Hydroxypyrrolidinyl]-1-(3,4-dimethoxyphenethoxy)-cyclohexane monohydrochloride], for which, in the data set with conscious rats [1], the convulsion dose amounted to 64 µmol/kg/min.

Consider `Cl.Clc1cccc(Cl)c1CCO[C@@H]1CCCC[C@H]1N1CCSC1` [Comparative Example Compound 48, (1R,2R)/(1S,2S)-2-(3-thiazolidinyl)-1-(2,6-dichlorophenethoxy)cyclo-hexane monohydrochloride], for which, in the data set with conscious rats [2], the convulsion dose came to 8 µmol/kg/min and the cum conv dose worked out at 44.4 µmol/kg.

Regarding `COc1ccc(CCO[C@H]2CCCCC2N2CCC3(C2)OCCO3)cc1OC` (some centres unmarked) [Comparative Example Compound 10, monohydrochloride], in the data set with conscious rats [2], the convulsion dose came out at 16 µmol/kg/min and the cum conv dose came to 91.33 µmol/kg.

In the data set with conscious rats [2], `Cl.OC1CCN([C@@H]2CCCC[C@@H]2OCCc2cccc3ccccc23)C1` (stereo partly drawn) [Comparative Example Compound 25, (3R)/(3S)-1-{(1R,2S)/(1S,2R)-2-[2-(1-naphthyl)ethoxy]-cyclohexyl}-pyrrolidin-3-ol hydrochloride] returned a convulsion dose of 16 µmol/kg/min and a cum conv dose of 70 µmol/kg.

In the data set with conscious rats [2], `Cl.OC1CCN(C2CCCC[C@@H]2OCCc2ccccc2Br)C1` (stereo partly drawn) [Comparative Example Compound 24, (3R)/(3S)-1-{(1R,2R)/(1S,2S)-2-[2-(2-bromophenyl)-ethoxy]cyclohexyl}-pyrrolidin-3-ol hydrochloride] showed a convulsion dose of 13 µmol/kg/min and a cum conv dose of 67 µmol/kg.

For the molecule `Cl.OC1CCN(C2CCCC[C@@H]2OCCc2cccc3ccccc23)C1` (stereo partly drawn) [Comparative Example Compound 26, (3R)/(3S)-1-{(1R,2R)/(1S,2S)-2-[2-(1-naphthyl)ethoxy]-cyclohexyl}-pyrrolidin-3-ol hydrochloride], the convulsion dose in the data set with conscious rats [2] was 8 µmol/kg/min.

In the data set with conscious rats [2], `COc1ccc(CCO[C@H]2CCCCC2N2CCCC2)cc1OC` (some centres unmarked) [Comparative Example Compound 17, monohydrochloride] had a convulsion dose of 21.33 µmol/kg/min and a cum conv dose of 118 µmol/kg.

For the molecule `c1cc(CCO[C@H]2CCCCC2N2CCOCC2)c2ccsc2c1` (some centres unmarked) [Comparative Example Compound 37], in the data set with conscious rats [2], the convulsion dose amounted to 8 µmol/kg/min and the cum conv dose was determined as 54 µmol/kg.

`COc1ccc(CCO[C@@H]2CCCC[C@H]2N2CC[C@H](O)C2)cc1OC.Cl` [Compound 6, (1R,2R)-2-[(3S)-Hydroxypyrrolidinyl]-1-(3,4-dimethoxyphenethoxy)-cyclohexane monohydrochloride] came in with a convulsion dose with conscious rats [1] of 64 µmol/kg/min.

Take `Brc1cccc(CCO[C@H]2CCCCC2N2CCOCC2)c1` (stereo partly drawn) [Comparative Example Compound 38, (1R,2R)/(1S,2S)-[2-(4-morpholinyl)-1-(3-bromophenethoxy)]-cyclohexane]: the convulsion dose with conscious rats [2] was determined as 16 µmol/kg/min.

In the data set on conscious rats [2], `Cl.OC1CCN(C2CCCC[C@@H]2OCCc2c(Cl)cccc2Cl)C1` (stereo partly drawn) [Comparative Example Compound 23, (3R)/(3S)-1-{(1R,2R)/(1S,2S)-2-[2-(2,6-dichlorophenyl)-ethoxy]cyclohexyl}-pyrrolidin-3-ol hydrochloride] came in with a convulsion dose of 8 µmol/kg/min and a cum conv dose of 65 µmol/kg.

Take `c1ccc2c(CCO[C@H]3CCCCC3N3CCOCC3)cccc2c1` (stereo partly drawn) [Comparative Example Compound 31, (1R,2R)/(1S,2S)-[2-(4-morpholinyl)-1-(1-naphthenethoxy)]-cyclohexane]: in the data set on conscious rats [2], the convulsion dose was 16 µmol/kg/min and the cum conv dose was 93 µmol/kg.

With `Cl.FC(F)(F)c1ccccc1CCO[C@H]1CCCC[C@H]1N1CCOCC1` (racemic) [Comparative Example Compound 42, (1R,2S)/(1S,2R)-2-(4-morpholinyl)-1-[(2-trifluoromethyl)-phenethoxy]-cyclohexane monohydrochloride], the convulsion dose in the data set on conscious rats [2] was 16 µmol/kg/min.

For the molecule `COc1ccc(CCOC2CCCC[C@H]2N2CCN(C(=O)Cc3ccc(OC)c(OC)c3)CC2)cc1OC.Cl.Cl` (stereo partly drawn) [Comparative Example Compound 22, 1-[(3,4-dimethoxyphenyl)acetyl]-4-{(1R,2R)/(1S,2S)-2-[2-(3,4-dimethoxyphenyl)-ethoxy]cyclohexyl}-piperazine hydrochloride], in the data set on conscious rats [2], the convulsion dose was 21.33 µmol/kg/min and the cum conv dose stood at 133 µmol/kg.

With `Cl.O=C1CCN(C2CCCC[C@@H]2OCC(c2ccccc2)c2ccccc2)C1` (stereo partly drawn) [Comparative Example Compound 47, (1R,2R)/(1S,2S)-2-(3-ketopyrrolidinyl)-1-(2,2-diphenylethoxy)cyclo-hexane monohydrochloride], the convulsion dose in the data set with conscious rats [2] is 21 µmol/kg/min.

`COc1ccc(CCO[C@H]2CCCCC2N2CCC(O)C2)cc1OC` (stereo partly drawn) [Compound 3, (1R,2R)/(1S,2S)-2-[(3R)/(3S)-Hydroxypyrrolidinyl]-1-(3,4-dimethoxyphenethoxy)-cyclohexane monohydrochloride] displayed a convulsion dose with conscious rats [1] of 64 µmol/kg/min.
